# Reference: patent publication US6858707B1, “Hypersensitive response elicitor fragments which are active but do not elicit a hypersensitive response” (EDEN Bioscience Corporation, priority 1998, dated 2005)
# Where “and” joins values, the source holds several entries; their conditions need not be identical. Equal values may be shown once.
# Legend:
# [1] = test system: tomato (Lycopersicon spp. cv. Marglobe); test: Induction of growth enhancement (GE/PGE), tomato seed soak; assay type: in vivo; details: oligopeptides, Table 5; tomato height vs buffer
# Procedure: Sixty tomato (Lycopersicon spp. cv. […] The next morning, the sixty seeds were sewn in three pots and 12-15 days later and again 18-20 days later the heights of the 10 tallest tomato plants per pot were measured and compared with the heights of the control plants treated only with phosphate buffer. Analyses were done on the heights to determine if there was a significant difference in the height of the plants treated with the truncated proteins compared with the buffer control, and thereby determine whether the proteins induced growth enhancement.
# TMV [2] = test: Induction of systemic acquired resistance (SAR), TMV lesions on tobacco; assay type: in vivo, Nicotiana tabacum; details: oligopeptides, Table 5; reduction in TMV lesions vs buffer control
# [3] = test system: tomato seeds (variety, Marglobe); test: 13 amino acid peptide: tomato seedling growth after seed soak; assay type: in vivo
# Procedure: The synthesized peptide was resuspended in 10 ml of 5 mM potassium phosphate buffer and, then, diluted to 1 and 100 ng/ml with the same buffer. About 100 tomato seeds (variety, Marglobe) were submerged in 20 ml of peptide solution overnight. The soaked seeds were planted in an 8 inch pot with artificial soil. Seeds soaked in the buffer without the peptide were used as a control. After seedlings emerged and the first two true leaves fully expanded, the height of the tomato seedlings was recorded.
# [4] = test system: tobacco and other tested plants; test: 13 amino acid peptide: HR in tobacco and other tested plants; assay type: in vivo
# parsley cells = details: H+/Ca2+ influxes, K+/Cl− effluxes, active oxygen production, SAR gene induction, phytoalexin accumulation; cited from earlier work
# tobacco leaves = test: HR test of HrpZ fragment preparations in tobacco leaves; assay type: in vivo; design: key to HR elicitation: +, elicits HR in tobacco leaves; −, no HR in tobacco leaves
# Procedure: Amino acid fragments 152-294 and 190-294 were chosen for further analysis and characterization. It was expected that the fragment 152-294 contained a domain that elicited the HR, while fragment 190-294 contained no domain that elicited the HR. The cultures were spun down, and the bacteria resuspended in 40 ml of 10 mM Tris pH 8.0. Twenty μl of antifoam and 40 μl of 200 mM PMSF were added, and the bacteria was sonicated to break open the cells. The bacterial debris was removed by centrifugation, and the supernatant was placed in a boiling water bath for 10 min. The precipitate was removed by centrifugation and the supernatant, a crude protein preparation, was retained for tests.
# Fifteen μl of each supernatant was run on a gel and stained to determine if the protein was present. It was estimated that about five times as much of the 152-294 fragment was present as the 190-294 fragment. Several dilutions of each preparation were infiltrated into tobacco leaves on two plants for HR tests (Table 7).
# TMV [5] = test: HrpZ fragments: induced resistance to TMV in tobacco; assay type: in vivo; details: % reduction in TMV lesions in unsprayed leaf of tobacco; 152-294 preparation diluted 40-fold, 190-294 diluted 8-fold
# Procedure: (§1) The fragment preparations were then tested for inducing resistance to TMV and for growth enhancement. Due to the difference in concentration of the HrpZ fragments, the 152-294 preparation was diluted 40-fold and the 190-294 preparation was diluted 8-fold. […] In contrast, the 152-294 aa fragment reduced the number of TMV lesions by only 55%. As also shown in Table 8, plants treated with the 152-294 aa fragment grew 4.64% more than buffer treated plants, while plants treated with the 190-294 aa fragment grew 2.62% more than the buffer treated plants.
# tomato = test: HrpZ fragments: growth enhancement (PGE); assay type: in vivo; details: % greater height than buffer sprayed plants; 152-294 preparation diluted 40-fold, 190-294 diluted 8-fold
# Procedure: To test whether non-HR eliciting fragments derived from HrpZ, the hypersensitive response elicitor from Pseudomonas syringae pv. syringae, is able to induce disease resistance, several fragment constructs were made and the expressed fragment proteins were tested for HR elicitation and disease resistance induction in tobacco and growth promotion in tomato.
# as §1
# [6] = cited from earlier work
molecule,measurement,setting,value
"oligo 137-166: synthesized oligopeptide, amino acids 137-166 of SEQ ID NO: 23 (STSQNDDSTSGTDSTSDSSDPMQQLLKMFS; listed as Erwinia amylovora)",PGE ht>buffer,[1],12.0%
same,TMV efficacy,TMV [2],61.2%
"oligo 137-156: synthesized oligopeptide, amino acids 137-156 of SEQ ID NO: 23 (STSQNDDSTSGTDSTSDSSD; listed as Erwinia amylovora)",PGE ht>buffer,[1],7.4%
same,TMV efficacy,TMV [2],−87.7%
"oligo 121-150: synthesized oligopeptide, amino acids 121-150 of SEQ ID NO: 23 (TTSTTNSPLDQALGINSTSQNDDSTSGTDS; listed as Erwinia amylovora)",PGE ht>buffer,[1],17.3%
same,TMV efficacy,TMV [2],60.0%
"oligo 150-179: synthesized oligopeptide, amino acids 150-179 of SEQ ID NO: 23 (STSDSSDPMQQLLKMFSEIMQSLFGDGQDG; listed as Erwinia amylovora)",PGE ht>buffer,[1],10.1%
same,TMV efficacy,TMV [2],72.9%
"NH2-Val-Trp-Asn-Gln-Pro-Val-Arg-Gly-Phe-Lys-Val-Tyr-Glu-COOH (H-VWNQPVRGFKVYE-OH; listed as Phytophthora megasperma) [13 amino acid peptide, oligopeptide derived from the 42 kDa glycoprotein elicitor of Phytophthora megasperma]",% Change,"[3]; height increase vs buffer, 100 ng/ml peptide",12.6%
same,Height of seedlings (cm),"[3]; individual tomato seedlings, seeds soaked overnight in 100 ng/ml peptide, listed as Peptide Solution",6.5 cm (5×) and 6.0 cm (5×)
same,Average (cm),"[3]; mean seedling height, 100 ng/ml peptide",6.25 cm
same,HR elicitation,[4],not able to elicit the HR
same,defense response in parsley cells,parsley cells,sufficient to elicit a complex defense response
"HrpZ Fragment 190-294: amino acids 190-294 of HrpZ (SEQ ID NO: 31), calmodulin-binding peptide fusion, crude preparation (protein, listed as Pseudomonas syringae, calmodulin-binding peptide fusion) DIIGQQLGNQQSDAGSLAGTGGGLGTPSSFSNNSSVMGDPLIDANTGPGDSGNTRGEAGQLIGELIDRGLQSVLAGGGLGTPVNTPQTGTSANGGQSAQDLDQLL",HR elicitation (in words),tobacco leaves; dilutions infiltrated into tobacco leaves,did not
same,"HR test, dilution 1:2","tobacco leaves; preparation diluted 1:2 with MilliQ water, result for each of two plants","−,−"
same,"HR test, dilution 1:5","tobacco leaves; preparation diluted 1:5 with MilliQ water, result for each of two plants","−,−"
same,"HR test, dilution 1:25","tobacco leaves; preparation diluted 1:25 with MilliQ water, result for each of two plants","−,−"
same,"HR test, dilution 1:125","tobacco leaves; preparation diluted 1:125 with MilliQ water, result for each of two plants","−,−"
same,HR elicitation,tobacco leaves; tobacco leaves,−
same,TMV (% efficacy),TMV [5],85% and 85.25%
same,PGE(% > buffer ht),tomato,2.62%
"hypersensitive response elicitor polypeptide or protein derived from Erwinia amylovora: elicitor from Erwinia amylovora, amino acid sequence SEQ ID NO: 23 (protein, listed as Erwinia amylovora) MSLNTSGLGASTMQISIGGAGGNNGLLGTSRQNAGLGGNSALGLGGGNQNDTVNQLAGLLTGMMMMMSMMGGGGLMGGGLGGGLGNGLGGSGGLGEGLSNALNDMLGGSLNTLGSKGGNNTTSTTNSPLDQALGINSTSQNDDSTSGTDSTSDSSDPMQQLLKMFSEIMQSLFGDGQDGTQGSSSGGKQPTEGEQNAYKKGVTDALSGLMGNGLSQLLGNGGLGGGQGGNAGTGLDGSSLGGKGLQNLSGPVDYQQLGNAVGTGIGMKAGIQALNDIGTHRHSSTRSFVNKGDRAMAKEIGQFMDQYPEVFGKPQYQKGPGQEVKTDDKSWAKALSKPDDDGMTPASMEQFNKAKGMIKRPMAGDTGNGNLQARGAGGSSLGIDAMMAGDAINNMALGKLGAA",heat stable at 100° C. for,[6],at least 10 minutes
